According to EP0808325B1, “[…] […] SERIES FOR […] GABA RECEPTOR” (priority 1994, dated 1996):

Legend:
mice = test: elevated plus-maze; format: in vivo, N.I.H. Swiss-Webster mice; conditions: IP
Source text: The theoretical basis for the elevated plus-maze test is similar to that of the light/dark transition test. As described by Pellow et al., J. Neurosci. Meth 14:149-167 (1985), the elevated plus-maze apparatus is designed to utilize the mice's natural aversion to open spaces. The apparatus consists of two open-arms and two enclosed-arms. The elevated plus-maze test allows for two measures of anxiety, the number of entries into the open-arms and the time spent on the open-arms, both expressed as a percentage of the total number of entries and time spent in/on both the open-arms and enclosed-arms.
Male N.I.H. Swiss-Webster mice (Harlan, Indianapolis, IN) weighing 15-20 g were housed four per cage in polyethylene cages with sawdust bedding. The colony room was environmentally controlled (22°C) with a 12 hr light/dark cycle (0600-1800 hr). Food and water were available ad libitum, except during testing. The experiments were run from 0700-1500 hr and groups were counterbalanced for time of day effects. Mice were only administered drug or vehicle once.
The method used was previously described (Lister, Psychopharmacol. 92:180-185 (1987)). The apparatus included two open arms perpendicular to two enclosed arms elevated 50 cm from the floor. Each arm was 50 cm long and the walls of the enclosed arms were 40 cm tall. The maze was made completely of black plexiglass. Incandescent 200 W light bulbs were above each of the open arms to produce a strong contrast between the open arms and the enclosed arms.
Ten minutes after an injection, the N.I.H. Swiss-Webster mice were placed in the center of the plus-maze facing an open arm. During the 5 min test period, the number of entries onto the open arms and the enclosed arms, and the time spent in the open arms and enclosed arms were measured. All four paws had to be within an arm for the dependent variable to be measured. Therefore, the time spent in the center of the maze is not counted, so the total time spent in the open arms and the enclosed arms may not equal 5 min. […]

[1] = tested on: metrazol induced convulsions; test: animal or person; format: in vivo, mice; conditions: IP
Method: Experiments were also performed to determine the physiological relevance of neuroactive steroid and GABA receptor interactions by assessing the ability of the compounds of and used in the invention to prevent metrazol induced convulsions in mice. […] The time to onset of myoclonus (presence of forelimb clonic activity) induced by metrazol was determined by observing each mouse for a period of 30 minutes. […]
The anticonvulsant tests are similar to that described above. […] The number of animals with tonic and/or clonic convulsions was recorded. In the maximal electroshock test, 50 mA of current at 60 Hz was delivered through corneal electrodes for 200 msec to induce tonic seizure. The ability of compounds to abolish the tonic component was defined as the endpoint. General CNS depression potential was determined by a rotorod test 10 minutes after the injection of compounds where the number of mice staying on a rotating (6 rpm) rod for 1 minute in one of the three trials was determined. […]

GR complex = test: modulation of [35S]TBPS binding in rat cerebral cortex P2 homogenate; set-up: species or system Sprague-Dawley rats; IMAX: unit not given here; conditions: for IC50: concentration of compounds to inhibit 50% of control [35S]TBPS binding, 2 nM [35S]TBPS, 25°C, 90 minutes; for IMAX: maximum inhibition of [35S]TBPS binding, I* = Inactive
Method: We performed several experiments to determine the nature of the modulation of [^35S]TBPS as affected by the compounds of the invention.
These procedures were performed as follows:
Brains from male Sprague-Dawley rats were removed immediately following sacrifice and the cerebral cortices dissected over ice. […] Briefly, the cortices were gently homogenized in 0.32 M sucrose followed by centrifugation at 1000 x g for 10 minutes. The supernatant was collected and centrifuged at 9000 x g for 20 minutes. The resultant P2 pellet was suspended as a 10% (original wet weight/volume) suspension in 50 mM Na/K phosphate buffer (pH 7.4) 200 mM NaCI to form the homogenate.
One hundred microliter […] aliquots of the P2 homogenate (0.5 milligrams (mg) protein) were incubated with 2 nanomolar (nM) [^35S]TBPS (70-110 curies/millimole;, New England Nuclear, Boston, MA) in the presence or absence of the naturally occurring steroids or their synthetic derivatives to be tested. The tested compounds were dissolved in dimethylsulfoxide (Baker Chem. Co., Phillipsbury, NJ) and added to the incubation mixture in 5 µL aliquots. The incubation mixture was brought to a final volume of 1 mL with buffer. Nonspecific binding was defined as binding in the presence of […]. The effect and specificity of GABA (Sigma Chem. Co., St. Louis, MO) was evaluated by performing all assays in the presence of GABA plus (+)bicuculline (Sigma Chem. Co.). Incubations maintained at 25°C for 90 minutes (steady state conditions) were terminated by rapid filtration through glass fiber filters (No. 32, Schleicher and Schuell, Keene, NH). Filter-bound radioactivity was quantitated by liquid scintillation spectrophotometry.
Various compounds were screened to determine their potential as modulators of [^35S]TBPS binding in vitro. These assays were performed in accordance with the above discussed procedures. […] It is an indication of a compound's in vitro potency. Maximum inhibition is an indication of a compound's in vitro efficacy.

[2] = 50% hpbcd, 10 mg/kg, 10 minutes prior to metrazol (85 mg/kg)

Structure (SMILES)	% Control (mice; 50% hpbcd, 10 mg/kg) [%]	% Protected [1, 2] [%]	IC50 (GR complex; no unit printed) [nM]	IMAX (GR complex)	other results
CC(=O)OCC(=O)[C@H]1CC[C@H]2[C@@H]3CC[C@H]4C[C@H](O)CC[C@]4(C)[C@H]3CC[C@]12C [3α,21-dihydroxy-5α-pregnan-20-one 21-acetate]	133	50	75	99	
C=C(C)C#CC1(O)CCC2(C)C(CCC3C2CCC2(C)C(C(C)=O)CCC32)C1 (stereo not drawn) [3α-hydroxy-3β-(3'-methyl-but-3'-en-1'-ynyl)-5α-pregnan-20-one]	141	87.5	88	95	
C=C[C@@]1(O)CC[C@@]2(C)[C@H](CC[C@@H]3[C@@H]2CC[C@]2(C)[C@@H](C(C)=O)CC[C@@H]32)C1 [3β-ethenyl-3α-hydroxy-5β-pregnan-20-one]	151	87.5	46	100	
C=C(C)C#C[C@@]1(O)CC[C@@]2(C)[C@H](CC[C@@H]3[C@@H]2CC[C@]2(C)[C@@H](C(C)=O)CC[C@@H]32)C1 [3α-hydroxy-3β-(3'-methyl-but-3'-en-1'-ynyl)-5β-pregnan-20-one]	155	100	24	91	
C[C@]12CC[C@H]3[C@@H](CC[C@@H]4C[C@@](O)(C(F)(F)F)CC[C@@H]43)[C@@H]1CC[C@@H]2C(=O)CO [3α,21-Dihydroxy-3β-trifluoromethyl-5β-19-norpregnan-20-one]	140	118.8	246	100	
CC12CCC(O)(C(F)(F)F)CC1CCC1C2CCC2(C)C(C(=O)COC(=O)C=CC(=O)[O-])CCC12.[Na+] (stereo not drawn) [3α,21-dihydroxy-3β-trifluoromethyl-5β-pregnan-20-one 21 hemifumarate sodium salt]			546	102	% Control (mice; water, dose column prints 50% hpbcd): 126%; % Protected ([1]; water, 10 mg/kg): 50%
C#C[C@@]1(O)CC[C@@]2(C)[C@H](CC[C@@H]3[C@@H]2CC[C@]2(C)[C@@H](C(C)O)CC[C@@H]32)C1 (stereo partly drawn) [3α,20-Dihydroxy-3β-ethynyl-5β-pregnane]					% Control (mice; dmso, 10 mg/kg): 178%
C#C[C@@]1(O)CC[C@@]2(C)[C@H](CC[C@H]3[C@@H]4CC[C@H](C(C)=O)[C@@]4(C)CC(=O)[C@@H]32)C1 [3β-Ethynyl-3α-hydroxy-5β-pregnan-11,20-dione]					% Control (mice; 50% hpbcd, 5 mg/kg): 235.9%
CCC(O)C1CCC2C3CCC4CC(C)(O)CCC4(C)C3CCC12C (stereo not drawn) [3α,20α-Dihydroxy-3β,21-dimethyl-5α-pregnane]			507	48	% Control (mice; dmso, 10 mg/kg): 73%; % Protected ([1]; dmso, 10 mg/kg): 0%
C[C@@]1(O)CC[C@@]2(C)[C@@H](CC[C@@H]3[C@@H]2CC[C@]2(C)[C@@H](C(=O)COC(=O)CCC(=O)[O-])CC[C@@H]32)C1.[Na+] [3α,21-dihydroxy-3β-methyl-5α-pregnan-20-one 21-Hemisuccinate, sodium salt]				104	% Protected ([1]; micro soln., 10 mg/kg): 11.11%; IC50 (GR complex; unit inferred, sodium salt): 211 nM
C[C@@]1(O)CC[C@@]2(C)[C@@H](CC[C@@H]3[C@@H]2CC[C@]2(C)[C@@H](C(=O)COC(=O)CCC(=O)O)CC[C@@H]32)C1 [3α,21-dihydroxy-3β-methyl-5α-pregnan-20-one 21-hemisuccinate]			241	92	% Protected ([1]; water, 10 mg/kg): 37.5%
C#C[C@@]1(O)CC[C@H]2[C@H](CC[C@@H]3[C@@H]2CC[C@]2(C)[C@@H](C(C)=O)CC[C@@H]32)C1 [3β-ethynyl-3α-hydroxy-19-nor-5β-pregnan-20-one]	172	87.5	44	93	
C#C[C@@]1(O)CC[C@@]2(C)[C@H](CC[C@@H]3[C@@H]2CC[C@]2(C)[C@@H]([C@@H](C)O)CC[C@@H]32)C1 [3α,20β-dihydroxy-3β-ethynyl-5β-pregnane, 3β-Ethynyl-3α,20β-dihydroxy-5β-pregnane]		25	688	77	
CC(=O)[C@H]1CC[C@H]2[C@@H]3CC[C@H]4C[C@](C)(O)CC[C@@H]4[C@H]3CC[C@]12C [3α-hydroxy-3β-methyl-5α-19-nor-pregnan-20-one]			91	80	% Protected ([1]; micro soln., 10 mg/kg): 37.5%
C#C[C@@]1(O)CC[C@@]2(C)[C@H](CC[C@@H]3[C@@H]2CC[C@]2(C)[C@@H](C(=O)COC(=O)CCC(=O)OCC(=O)[C@H]4CC[C@H]5[C@@H]6CC[C@@H]7C[C@@](O)(C#C)CC[C@]7(C)[C@H]6CC[C@]45C)CC[C@@H]32)C1 [Bis (3α,21-dihydroxy-3β-ethynyl-5β-pregnan-20-one) 21-hemisuccinate]		37.5	68	56	
C[C@]12CC[C@@H](O)C[C@@H]1CC[C@@H]1[C@@H]2CC[C@]2(C)[C@@H](C(=O)COC(=O)CCC(=O)[O-])CC[C@@H]12.[Na+] [3α,21-dihydroxy-5α-pregnan-20-one 21-hemisuccinate, sodium salt]				92	% Protected ([1]; water, 60 mg/kg): 100%; IC50 (GR complex; unit inferred, sodium salt): 251 nM
CC(=O)[C@H]1CC[C@H]2[C@@H]3CC[C@H]4C[C@](O)(C(F)(F)F)CC[C@]4(C)[C@H]3CC[C@]12C [3α-Hydroxy-3β-trifluoromethyl-5α-pregnan-20-one]		62.5	244	44	
C#C[C@@]1(O)CC[C@@]2(C)[C@@H](CC[C@@H]3[C@@H]2CC[C@]2(C)[C@@H]([C@@H](C)O)CC[C@@H]32)C1 [3α,20β-dihydroxy-3β-ethynyl-5α-pregnane, 3β-ethynyl-3α,20β-dihydroxy- 5α-pregnane]		37.5	774	107	
CC(=O)C1CCC2C3CCC4CC(O)(C(F)(F)F)CCC4(C)C3C(=O)CC12C (stereo not drawn) [3α-Hydroxy-3β-trifluoromethyl-5β-pregnan-11,20-dione]	112				
C#C[C@@]1(O)CC[C@@]2(C)[C@H](CC[C@H]3[C@@H]4CC[C@H](C(C)=O)[C@@]4(C)C=C[C@@H]32)C1 [3β-Ethynyl-3α-hydroxy-5β-pregn-11-en-20-one]	233	75			
CC(=O)[C@H]1CC[C@H]2[C@@H]3CC[C@@H]4C[C@@](O)(C#CC5CC5)CC[C@]4(C)[C@H]3CC[C@]12C [3β-Cyclopropylethynyl-3α-hydroxy-5β-pregnan-20-one]		87.5	22	94	IC50 (GR complex; no unit printed, listed as 3β-(cyclopropyl)ethynyl-3α-hydroxy-5β-pregnan-20-one): 32 nM; IMAX (GR complex; listed as 3β-(cyclopropyl)ethynyl-3α-hydroxy-5β-pregnan-20-one): 97
